This note sets out measurements from patent US9932368B2, “Peptides for the stimulation of collagen formation” (INFINITEC ACTIVOS S.L, priority 2013, dated 2018).

The star is where a group is joined. Palmitoyl = CCCCCCCCCCCCCCCC(=O)*

For this test, the system named is type I collagen. Nature of the test: Determination of collagen biosynthesis (type I collagen ELISA), single peptides and mixture, Example 10. It is filed as cell-based, human. To be noted: 20, 40 and 80 μg/ml, 72 hours; ELISA O.D. 450 nm; vs untreated cells. Here is the method: Human Dermal Fibroblasts (ATCC PCS-201-012) were seeded in 96-well plates (3000 cells per well), and left to grow in DMEM containing 5% fetal bovine serum (FBS) for 48 hours. The medium was then replaced with fresh medium containing 0.1% FBS and the corresponding treatment for determining collagen production. After the incubation with each of the peptides (1, 2, and 3) and the mixture of peptides 1-3 synthesized in Example 1, at different concentrations (20, 40 and 80 μg/ml) of each peptide dissolved in DMEM medium in an equivalent proportion of each of them in the mixture (1:1:1 w/w/w), for a period of 72 hours, the same amounts of supernatant were added to a plate coated with human type I collagen antibody (commercial rabbit polyclonal antibodies against human collagen I, code A03C0377, provided by Bluegene Biotech Co. Ltd). The plate was incubated at room temperature for 2 hours to allow the antibody and the produced collagen to react with one another. The plate was then washed three times with PBS containing 0.5% Tween 20 for removing the remaining unbound sample. Next, a human antibody which recognizes the biotin-labeled type I collagen was added for 1 hour. After washing the plate with phosphate buffered saline (PBS) containing 0.5% Tween 20 for removing non-specific interactions, streptavidin-horseradish peroxidase (HRP) (St Louis, Sigma) was added. The amount of collagen in each well was determined using tetramethylbenzidine (TMB) (St Louis, Sigma) as the substrate for the HRP. The reaction between the HRP and TMB was stopped by adding 1 N HCl, and the O.D. (optical density) was measured at 450 nm. The untreated cells represented the negative control of the experiment.
For “Palm-RGDGPQGPQ-NH2 (Palmitoyl-RGDGPQGPQ-NH2; SMILES CCCCCCCCCCCCCCCC(=O)N[C@@H](CCCNC(=N)N)C(=O)NCC(=O)N[C@@H](CC(=O)O)C(=O)NCC(=O)N1CCC[C@H]1C(=O)N[C@@H](CCC(N)=O)C(=O)NCC(=O)N1CCC[C@H]1C(=O)N[C@@H](CCC(N)=O)C(N)=O) [Peptide 2]”, the “induction of type I collagen” value is recorded as “capable of inducing type I collagen production”.

In the case of “Palm-WRFQWQFEQ-NH2 (Palmitoyl-WRFQWQFEQ-NH2; SMILES CCCCCCCCCCCCCCCC(=O)N[C@@H](Cc1c[nH]c2ccccc12)C(=O)N[C@@H](CCCNC(=N)N)C(=O)N[C@@H](Cc1ccccc1)C(=O)N[C@@H](CCC(N)=O)C(=O)N[C@@H](Cc1c[nH]c2ccccc12)C(=O)N[C@@H](CCC(N)=O)C(=O)N[C@@H](Cc1ccccc1)C(=O)N[C@@H](CCC(=O)O)C(=O)N[C@@H](CCC(N)=O)C(N)=O) [Peptide 3]”, the “induction of type I collagen” value is listed as “capable of inducing type I collagen production”.

In the case of “Palm-RGDGANPNAAG-NH2 (Palmitoyl-RGDGANPNAAG-NH2; SMILES CCCCCCCCCCCCCCCC(=O)N[C@@H](CCCNC(=N)N)C(=O)NCC(=O)N[C@@H](CC(=O)O)C(=O)NCC(=O)N[C@@H](C)C(=O)N[C@@H](CC(N)=O)C(=O)N1CCC[C@H]1C(=O)N[C@@H](CC(N)=O)C(=O)N[C@@H](C)C(=O)N[C@@H](C)C(=O)NCC(N)=O) [Peptide 1]”, the “induction of type I collagen” value was “capable of inducing type I collagen production”.
